For one assay, the system named is A. niger and P. citrinum. The assay is described as follows: Visual mold growth rating on gypsum cuboids placed on inoculated Sabouraud's Dextrose Agar (Example 2). It counts as cell-based. To be noted: for Visual evaluation Week 1 / Visual evaluation Week 2 / Visual evaluation Week 3 / Visual evaluation Week 4: 26° C., 70% relative humidity. From the text: Gypsum cuboids (30×40×25 mm^3) were made with the addition of the following formulations: • Sodium dehydroacetic acid (Na-DHA): 2500 ppm and 5000 ppm. • Carboquat® 250T ^3: 2500 ppm and 5000 ppm. • Carboquat® 250T/DHA 10:4 (wt./wt.): 2500 ppm and 5000 ppm. • ^3 Carboquat® 250T is an essentially aqueous solution containing approx. 50% of a mixture of carbonate and bicarbonate of didecyldimethylammonium. Carboquat® 250T is available from Lonza Inc., Allendale N.J.
Glass containers with Sabouraud's Dextrose Agar (SDA) on the bottom were prepared. Freshly-made spore suspensions of A. niger and P. citrinum were spread on the surface of SDA. The gypsum cuboids were air-dried and then placed on the top of the inoculated SDA. The containers were covered by aluminum foil and placed in an incubator with pre-set temperature of 26° C. and relative humidity of 70%. The test was completed at 4 weeks. Visual observation of mold growth on the gypsum cuboids was recorded weekly using the same rating system as in Example 1.

For another assay, the system named is mold/stain fungi. Kind of assay: Dip treated fresh cut white pine blocks in sealed bags, visual mold and stain growth rating (Example 5). It counts as cell-based. To be noted: 1% dip solution; for Visual evaluation Week 1 / Visual evaluation Week 2 / Visual evaluation Week 3 / Visual evaluation Week 4 / Visual evaluation Week 5 / Visual evaluation Week 6 / Visual evaluation Week 8: one minute, white pine blocks, no inoculation; for Efficacy against mold/stain fungi (in words): 8 weeks. The text has this: Fresh cut white pine blocks (7.6×6.35×3.8 cm^3) were dipped in the prepared test formulation for one minute. The individual dipped wood block was placed in a plastic sandwich bag and the plastic bag was sealed to retain the moisture of the test wood blocks. No mold or stain fungi were inoculated on the test blocks. […] The test was completed in 8 weeks.

Regarding `CC(=O)c1c([O-])cc(C)oc1=O.[Na+]` [Na-DHA, Sodium dehydroacetic acid], in the assay on A. niger and P. citrinum (2500 ppm in gypsum cuboid), the “Visual evaluation Week 1” value is 0, the “Visual evaluation Week 2” value is listed as 2 (Medium mold growth (6-25% mold coverage)), the “Visual evaluation Week 3” value is 3 (Heavy mold growth (26-50% mold coverage)) and the “Visual evaluation Week 4” value is listed as 3 (Heavy mold growth (26-50% mold coverage)). The “Mold growth on gypsum cuboids (in words)” value with A. niger and P. citrinum (5000 ppm) was “no mold growth”. In the assay on A. niger and P. citrinum (5000 ppm in gypsum cuboid), the “Visual evaluation Week 1” value is listed as 0, the “Visual evaluation Week 2” value came out at 0, the “Visual evaluation Week 3” value was 0 and the “Visual evaluation Week 4” value is listed as 0. Also, in the assay with mold/stain fungi, the “Visual evaluation Week 1” value is given as 0, the “Visual evaluation Week 2” value is listed as 0, the “Visual evaluation Week 3” value is on record as 0 and the “Visual evaluation Week 4” value came to 0. In the assay on mold/stain fungi, the “Visual evaluation Week 5” value was 1 (Slight mold growth (<5% mold coverage)), the “Visual evaluation Week 6” value is 1 (Slight mold growth (<5% mold coverage)), the “Visual evaluation Week 8” value was 2 (Medium mold growth (6-25% mold coverage)) and the “Efficacy against mold/stain fungi (in words)” value is “strong efficacy”.

As for `C/C=C/C=C/C(=O)[O-].[Na+]` [Na-Sorbate], in the assay on mold/stain fungi, the “Visual evaluation Week 1” value is on record as 2 (Medium mold growth (6-25% mold coverage)), the “Visual evaluation Week 2” value is 4 (Severe mold growth (>50% mold coverage)), the “Visual evaluation Week 3” value is listed as 4 (Severe mold growth (>50% mold coverage)) and the “Visual evaluation Week 4” value was 4 (Severe mold growth (>50% mold coverage)). For the same compound, in the assay on mold/stain fungi, the “Visual evaluation Week 5” value was 4 (Severe mold growth (>50% mold coverage)), the “Visual evaluation Week 6” value was 4 (Severe mold growth (>50% mold coverage)), the “Visual evaluation Week 8” value is listed as 4 (Severe mold growth (>50% mold coverage)) and the “Efficacy against mold/stain fungi (in words)” value is recorded as “no efficacy”.

Turning to `O=C([O-])c1ccccc1.[Na+]` [Na-Benzoate], in the assay on mold/stain fungi, the “Visual evaluation Week 1” value is 2 (Medium mold growth (6-25% mold coverage)), the “Visual evaluation Week 2” value is 4 (Severe mold growth (>50% mold coverage)), the “Visual evaluation Week 3” value is on record as 4 (Severe mold growth (>50% mold coverage)) and the “Visual evaluation Week 4” value is 4 (Severe mold growth (>50% mold coverage)). For the same compound, in the assay with mold/stain fungi, the “Visual evaluation Week 5” value is on record as 4 (Severe mold growth (>50% mold coverage)), the “Visual evaluation Week 6” value is 4 (Severe mold growth (>50% mold coverage)), the “Visual evaluation Week 8” value is on record as 4 (Severe mold growth (>50% mold coverage)) and the “Efficacy against mold/stain fungi (in words)” value is “no efficacy”.

Source of the values: US20100105768A1, “MOLD-INHIBITING METHOD AND COMPOSITION” (priority 2008, published 2010).
